Test system: Rattus norvegicus
Experiment: Percent fall in blood glucose level in male Sprague-Dawley rats when at 100 mg/kg dose was calculated by AUC method
Type: functional

SMILES	Activity
CN(CCOc1ccc(-c2cc(Cc3nnn[nH]3)[nH]n2)cc1)Cc1ccccc1	18%
CSc1ccc(-c2cc(Cc3nnn[nH]3)[nH]n2)cc1	6.06%
c1csc(-c2cc(Cc3nnn[nH]3)n[nH]2)c1	21.4%
CSCCOc1ccc(-c2cc(Cc3nnn[nH]3)[nH]n2)cc1	24.6%
c1ccc2oc(-c3cc(Cc4nnn[nH]4)n[nH]3)cc2c1	6.2%
c1ccc(-c2cc(Cc3nnn[nH]3)n[nH]2)cc1	10.6%
Clc1ccc(-c2cc(Cc3nnn[nH]3)[nH]n2)cc1	10.8%
CN(C)C(=N)NC(=N)N [METFORMIN]	12.9%
Brc1ccc(-c2cc(Cc3nnn[nH]3)[nH]n2)cc1	18%
